The term pIC50 denotes the negative decadic logarithm of the IC50, by convention in mol/L. Usually melting point stands for the temperature of the solid-liquid transition.

The target in one data set is T1, PDE9 (Homo sapiens, UniProt O76083).
T1 construct: made in house
Briefly: PDE9-inhibiting activity (SPA, 3H-cGMP degradation). The format is biochemical. The note with it: PDE9-inhibiting activity (IC50 values), cGMP 1 μM, 30° C. How it is done: The PDE9 used in the present experiment was expressed/purified by the method as in, for example, Guipponi et al., and Fisher et., al. (Fisher, D. A., et al., J. Biol. Chem., 273: pp. 15559-15564 (1998), Guipponi, M., et al., Hum. Genet., 103: pp. 386-392 (1998)).
(2) Evaluation of PDE9-Inhibiting Activity
The PDE9-inhibiting activity was measured by the following method. That is, to a buffer solution containing tris(hydroxymethyl)aminomethane-hydrochloric acid (40 mM, pH 8.0), magnesium chloride (5 mM), and 2-mercaptoethanol (4 mM) were added cGMP (1 μM) and ^3H-cGMP (0.33 μCi/ml) to give a substrate buffer solution. A test substance solution and an enzyme solution which had been adjusted to an optimal concentration were added thereto to perform a reaction at 30° C. The enzyme reaction was stopped by the addition of Scintillation Proximity Assay (SPA) Beads (Perkin Elmer, USA) containing 5 mM 3-isobutyl-1-methylxanthine (IBMX). For the enzyme activity, the amount of 5′-GMP, which is a reaction degradation product bound to SPA beads, was measured with a TopCount microplate reader (Hewlett Packard, USA).
The inhibitory rate was calculated by taking the radioactivity of the control containing no test substance as (A), taking the radioactivity of the blank containing no enzyme as (B), and taking the radioactivity of the test substance as (C), and using the following equation. Inhibitory rate=100−{(C)−(B)/(A)−(B)}×100(%)

Data set [1] relates to urethra relaxation response. Briefly: Simultaneous measurement model for rat bladder contraction/urethra relaxation responses. Type of data set: in vivo. The note with it: female SD rat, urethane anesthesia, 1 mg/kg, intravenously or intraduodenally. The source says:
That is, a female Sprague-Dawley (SD) rat (Charles River Laboratories Japan, Inc.) was anesthetized with urethane, and the bladder was exposed by a midline incision in the lower abdomen. A double lumen cannula (a cannula having a dual structure by PE190 and PE50) from the bladder apex was inserted into the bladder, and the bladder apex and the cannula were fixed by sutures at a point where the tip reached the proximal urethra. While infusing physiological saline into the urethra through the outer cannula, the urethral inner pressure was measured by a pressure transducer through the inner cannula with a saline solution infused into the urethra through the outer cannula. On the other hand, a single cannula (PE50) was inserted into the bladder from the bladder apex and placed therein. The inner pressure of the bladder was measured through this cannula. After a postoperative stabilization period had passed, physiological saline was infused into the bladder through the cannula of the bladder apex to cause a bladder contraction reaction, and thus cause a urethra relaxation response accompanying the bladder contraction reflex. The test substance was administered intravenously or intraduodenally.

pIC50: −log10 of the molar value.

T1 sequence (O76083 whole entry): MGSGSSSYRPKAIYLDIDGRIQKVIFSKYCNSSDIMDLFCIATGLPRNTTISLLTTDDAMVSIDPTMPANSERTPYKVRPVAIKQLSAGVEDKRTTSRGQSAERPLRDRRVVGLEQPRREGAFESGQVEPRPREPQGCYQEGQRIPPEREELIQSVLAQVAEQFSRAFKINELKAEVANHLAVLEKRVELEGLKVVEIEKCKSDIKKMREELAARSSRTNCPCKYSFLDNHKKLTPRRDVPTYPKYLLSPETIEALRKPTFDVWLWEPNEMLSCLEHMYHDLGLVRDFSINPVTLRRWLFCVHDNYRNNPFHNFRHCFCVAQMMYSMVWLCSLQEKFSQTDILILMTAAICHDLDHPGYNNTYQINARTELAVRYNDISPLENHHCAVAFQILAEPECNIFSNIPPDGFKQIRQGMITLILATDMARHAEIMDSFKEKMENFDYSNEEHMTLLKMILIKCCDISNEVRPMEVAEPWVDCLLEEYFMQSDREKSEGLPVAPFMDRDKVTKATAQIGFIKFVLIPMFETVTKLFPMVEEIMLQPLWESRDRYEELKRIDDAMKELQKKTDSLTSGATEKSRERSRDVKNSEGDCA

Compound `COCc1cc2c(cc1C(=O)N1CCc3cc(C)cnc31)[nH]c(=O)c1cnc(C3CCOC3)n12` (single isomer, unassigned) [Example 25(b)] had a pIC50 against PDE9 of 7.85. For the same compound, the “ratio with increased urethra relaxation time during voiding (increase relative to the solvent administration group (vs vehicle))” value in data set [1] is on record as 131%.
On PDE9, `COc1cc2c(cn1)N(C(=O)c1cc3[nH]c(=O)c4cnc(C5CCOC5)n4c3cc1C)CC2` (single isomer, unassigned) [Example 27(b)] had a pIC50 of 7.59. For the same compound, the “ratio with increased urethra relaxation time during voiding (increase relative to the solvent administration group (vs vehicle))” value in data set [1] was found to be 181%.
`Cc1cc2c(cc1C(=O)N1CCc3cc(Br)cnc31)[nH]c(=O)c1cnc(C3CCOC3)n12` (single isomer, unassigned) [Example 29(b)]: at PDE9, the pIC50 is 8.25. Moreover, in data set [1], the “ratio with increased urethra relaxation time during voiding (increase relative to the solvent administration group (vs vehicle))” value turned out to be 149%.
As for `Cc1cc2c(cc1C(=O)N1CCc3cc(F)c(F)cc31)[nH]c(=O)c1cnc(C3CCOC3)n12.Cl` (single isomer, unassigned) [Example 30(b)], the pIC50 on PDE9 is 8.24. Further, the “ratio with increased urethra relaxation time during voiding (increase relative to the solvent administration group (vs vehicle))” value in data set [1] was determined as 147%.
On PDE9, `COCc1cc2c(cc1C(=O)N1CCc3cc(Br)cnc31)[nH]c(=O)c1cnc(C3CCOC3)n12` (single isomer, unassigned) [Example 43(b)] showed a pIC50 of 8.55. In data set [1], the “ratio with increased urethra relaxation time during voiding (increase relative to the solvent administration group (vs vehicle))” value amounted to 138%.
As for `COc1cc2c(cn1)N(C(=O)c1cc3[nH]c(=O)c4cnc(C5CCOCC5)n4c3cc1Cl)CC2` [Example 21], the melting point is 314 to 316 °C (dec.). This compound had a pIC50 against PDE9 of 7.66.
For `Cc1cc2c(cc1C(=O)N1CCc3cc(F)ccc31)[nH]c(=O)c1cnc([C@@H]3CCC[C@@H]3O)n12` [Example 22] the same measures were 197 to 199 °C and 7.25.
On to `COc1cc2c(cc1C(=O)N1CCc3cc(Br)cnc31)[nH]c(=O)c1cnc(C3CCOCC3)n12` [Example 23], for which the melting point is 316 to 319 °C (dec.). The compound also showed a pIC50 against PDE9 of 8.31.
For `Cc1cc2c(cc1C(=O)N1CCc3cc(Br)cnc31)[nH]c(=O)c1nnc(CC3CC3)n12` [Example 24] the same measures were 268 to 271 °C and 7.77.
The matching figures for `COc1cc2c(cn1)N(C(=O)c1cc3[nH]c(=O)c4cnc(C5CCOC5)n4c3cc1C)CC2` (stereo not shown) [Example 27]: 241 to 243 °C and 7.08.
For `Cc1cc2c(cc1C(=O)N1CC(C)c3cc(Cl)ccc31)[nH]c(=O)c1nnc(C3CCOCC3)n12.Cl` (stereo not shown) [Example 32] the same measures were 231 to 234 °C and 8.59.
On to `COCc1cc2c(cc1C(=O)N1CCc3cc(Br)cnc31)[nH]c(=O)c1nnc(C3CCC3)n12` [Example 41], for which the melting point was 174 to 176 °C. At PDE9, this compound showed a pIC50 of 7.74.
`COCc1cc2c(cc1C(=O)N1Cc3cccc(F)c3C1)[nH]c(=O)c1cnc(C3CCOC3)n12` (stereo not shown) [Example 42] registered a melting point of 154 to 156 °C. Further, the pIC50 on PDE9 is 7.89.
The matching figures for `COCc1cc2c(cc1C(=O)N1CCc3cc(Br)cnc31)[nH]c(=O)c1nnc(CC3CC3)n12` [Example 44]: 168 to 170 °C and 8.21.
The matching figures for `COCc1cc2c(cc1C(=O)N1CCc3cc(Cl)ccc31)[nH]c(=O)c1nnc(C3CCC3)n12.Cl` [Example 46]: 170 to 172 °C and 7.89.
For `Cc1cc2c(cc1C(=O)N1CCc3cc(Br)cnc31)[nH]c(=O)c1cnc(C3CCCOC3)n12` (stereo not shown) [Example 47] the same measures were 300 to 305 °C (dec.) and 8.68.
For `O=C(c1cc2[nH]c(=O)c3cnc(C4CCOCC4)n3c2cc1Cl)N1CCc2cc(Br)cnc21` [Example 48], the melting point is 270 to 275 °C (dec.). At PDE9, the pIC50 is 9.10.

The record behind these values is patent publication US8901126B2, “Substituted imidazo[1,5-A]quinoxalin-4-ones are useful for preventing or treating storage dysfunction, voiding dysfunction and bladder/urethral diseases” (priority 2010, dated 2014).
